As usually defined, the Ki is the dissociation constant of the complex between target and ligand, obtained from inhibition or displacement. Read a high Ki as lower affinity.

The target of assay [1] is T1, 1-phosphatidylinositol 4,5-bisphosphate phosphodiesterase beta-1 (Rattus norvegicus, UniProt P10687).
T1 sequence (P10687 whole entry): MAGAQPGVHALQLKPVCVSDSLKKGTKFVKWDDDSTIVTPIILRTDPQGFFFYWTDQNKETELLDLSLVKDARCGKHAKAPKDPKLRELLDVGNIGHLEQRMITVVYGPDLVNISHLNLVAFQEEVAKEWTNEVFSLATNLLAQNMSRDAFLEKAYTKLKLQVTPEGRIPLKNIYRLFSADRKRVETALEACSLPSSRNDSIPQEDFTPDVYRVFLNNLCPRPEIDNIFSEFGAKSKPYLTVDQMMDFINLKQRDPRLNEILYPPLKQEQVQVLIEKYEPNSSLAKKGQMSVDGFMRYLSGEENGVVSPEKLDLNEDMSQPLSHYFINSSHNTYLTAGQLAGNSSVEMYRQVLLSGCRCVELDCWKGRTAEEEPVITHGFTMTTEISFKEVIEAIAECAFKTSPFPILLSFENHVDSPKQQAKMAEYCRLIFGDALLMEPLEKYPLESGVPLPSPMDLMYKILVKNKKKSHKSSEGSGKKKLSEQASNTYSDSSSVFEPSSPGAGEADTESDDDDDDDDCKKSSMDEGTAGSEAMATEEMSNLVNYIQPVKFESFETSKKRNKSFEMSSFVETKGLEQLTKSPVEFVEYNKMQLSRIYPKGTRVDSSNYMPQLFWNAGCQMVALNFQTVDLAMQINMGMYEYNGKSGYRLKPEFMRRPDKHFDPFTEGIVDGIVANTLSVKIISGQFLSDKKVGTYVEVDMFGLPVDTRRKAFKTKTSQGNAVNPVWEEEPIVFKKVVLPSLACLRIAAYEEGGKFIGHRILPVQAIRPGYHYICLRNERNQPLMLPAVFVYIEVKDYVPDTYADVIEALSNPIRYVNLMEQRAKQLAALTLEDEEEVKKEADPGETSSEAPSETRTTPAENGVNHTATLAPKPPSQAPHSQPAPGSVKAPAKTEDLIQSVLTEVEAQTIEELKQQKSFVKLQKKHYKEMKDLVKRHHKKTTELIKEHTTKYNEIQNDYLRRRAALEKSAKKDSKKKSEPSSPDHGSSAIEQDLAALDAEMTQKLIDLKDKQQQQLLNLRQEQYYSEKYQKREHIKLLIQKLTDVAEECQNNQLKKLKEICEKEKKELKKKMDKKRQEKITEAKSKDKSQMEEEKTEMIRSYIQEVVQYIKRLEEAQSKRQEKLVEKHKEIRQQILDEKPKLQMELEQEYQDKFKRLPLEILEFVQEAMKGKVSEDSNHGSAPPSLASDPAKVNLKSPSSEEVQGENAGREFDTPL

In assay [2] the target is cAMP-dependent protein kinase catalytic subunit beta (Rattus norvegicus, UniProt P68182).
Assay [3] deals with Rho-associated protein kinase 2 (Rattus norvegicus, UniProt Q62868).
The target in assay [4] is T2, cGMP-dependent protein kinase 1 (Homo sapiens, UniProt Q13976).
T2 sequence (Q13976 whole entry): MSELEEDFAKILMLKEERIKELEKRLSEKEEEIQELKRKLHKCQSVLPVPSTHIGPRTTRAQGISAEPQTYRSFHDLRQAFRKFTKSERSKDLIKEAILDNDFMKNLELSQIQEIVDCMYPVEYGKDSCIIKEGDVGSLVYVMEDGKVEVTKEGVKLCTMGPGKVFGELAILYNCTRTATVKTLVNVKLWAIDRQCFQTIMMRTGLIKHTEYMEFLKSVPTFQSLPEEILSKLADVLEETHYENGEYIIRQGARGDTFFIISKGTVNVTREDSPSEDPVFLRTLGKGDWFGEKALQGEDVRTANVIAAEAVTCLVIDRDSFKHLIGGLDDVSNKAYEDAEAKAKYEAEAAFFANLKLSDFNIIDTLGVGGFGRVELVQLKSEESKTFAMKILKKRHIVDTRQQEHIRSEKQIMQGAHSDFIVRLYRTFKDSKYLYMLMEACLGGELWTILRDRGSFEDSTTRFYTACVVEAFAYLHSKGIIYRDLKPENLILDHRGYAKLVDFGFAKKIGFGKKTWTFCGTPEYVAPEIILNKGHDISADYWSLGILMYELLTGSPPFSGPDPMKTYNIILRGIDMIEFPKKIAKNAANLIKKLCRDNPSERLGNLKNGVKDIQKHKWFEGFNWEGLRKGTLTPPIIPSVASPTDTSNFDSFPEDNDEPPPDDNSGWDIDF

For assay [5], the target named is Protein kinase C alpha type (Rattus norvegicus, UniProt P05696).
In assay [6] the target is T3, 1-phosphatidylinositol 4,5-bisphosphate phosphodiesterase delta-4 (Rattus norvegicus, UniProt Q62711).
T3 sequence (Q62711 whole entry): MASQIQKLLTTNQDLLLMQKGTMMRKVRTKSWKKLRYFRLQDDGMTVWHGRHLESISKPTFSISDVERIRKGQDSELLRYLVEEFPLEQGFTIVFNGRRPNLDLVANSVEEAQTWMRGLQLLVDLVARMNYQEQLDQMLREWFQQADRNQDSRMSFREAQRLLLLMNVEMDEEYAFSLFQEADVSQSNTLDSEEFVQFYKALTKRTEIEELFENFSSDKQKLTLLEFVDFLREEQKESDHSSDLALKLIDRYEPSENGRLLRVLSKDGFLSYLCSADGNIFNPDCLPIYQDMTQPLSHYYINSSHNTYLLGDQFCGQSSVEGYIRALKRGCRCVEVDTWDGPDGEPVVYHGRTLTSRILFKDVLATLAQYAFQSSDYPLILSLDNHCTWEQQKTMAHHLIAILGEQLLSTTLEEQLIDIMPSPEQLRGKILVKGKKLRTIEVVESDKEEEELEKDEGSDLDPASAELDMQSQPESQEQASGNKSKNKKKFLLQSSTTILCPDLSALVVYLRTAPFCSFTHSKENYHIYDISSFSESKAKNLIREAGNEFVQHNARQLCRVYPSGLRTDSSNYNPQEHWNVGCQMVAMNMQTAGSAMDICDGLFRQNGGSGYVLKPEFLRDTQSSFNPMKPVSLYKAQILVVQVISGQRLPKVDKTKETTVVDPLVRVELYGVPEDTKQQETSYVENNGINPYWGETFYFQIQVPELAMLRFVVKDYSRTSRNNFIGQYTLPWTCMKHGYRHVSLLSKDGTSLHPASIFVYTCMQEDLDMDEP

Sequence of Rho-associated protein kinase 2 (Q62868 whole entry): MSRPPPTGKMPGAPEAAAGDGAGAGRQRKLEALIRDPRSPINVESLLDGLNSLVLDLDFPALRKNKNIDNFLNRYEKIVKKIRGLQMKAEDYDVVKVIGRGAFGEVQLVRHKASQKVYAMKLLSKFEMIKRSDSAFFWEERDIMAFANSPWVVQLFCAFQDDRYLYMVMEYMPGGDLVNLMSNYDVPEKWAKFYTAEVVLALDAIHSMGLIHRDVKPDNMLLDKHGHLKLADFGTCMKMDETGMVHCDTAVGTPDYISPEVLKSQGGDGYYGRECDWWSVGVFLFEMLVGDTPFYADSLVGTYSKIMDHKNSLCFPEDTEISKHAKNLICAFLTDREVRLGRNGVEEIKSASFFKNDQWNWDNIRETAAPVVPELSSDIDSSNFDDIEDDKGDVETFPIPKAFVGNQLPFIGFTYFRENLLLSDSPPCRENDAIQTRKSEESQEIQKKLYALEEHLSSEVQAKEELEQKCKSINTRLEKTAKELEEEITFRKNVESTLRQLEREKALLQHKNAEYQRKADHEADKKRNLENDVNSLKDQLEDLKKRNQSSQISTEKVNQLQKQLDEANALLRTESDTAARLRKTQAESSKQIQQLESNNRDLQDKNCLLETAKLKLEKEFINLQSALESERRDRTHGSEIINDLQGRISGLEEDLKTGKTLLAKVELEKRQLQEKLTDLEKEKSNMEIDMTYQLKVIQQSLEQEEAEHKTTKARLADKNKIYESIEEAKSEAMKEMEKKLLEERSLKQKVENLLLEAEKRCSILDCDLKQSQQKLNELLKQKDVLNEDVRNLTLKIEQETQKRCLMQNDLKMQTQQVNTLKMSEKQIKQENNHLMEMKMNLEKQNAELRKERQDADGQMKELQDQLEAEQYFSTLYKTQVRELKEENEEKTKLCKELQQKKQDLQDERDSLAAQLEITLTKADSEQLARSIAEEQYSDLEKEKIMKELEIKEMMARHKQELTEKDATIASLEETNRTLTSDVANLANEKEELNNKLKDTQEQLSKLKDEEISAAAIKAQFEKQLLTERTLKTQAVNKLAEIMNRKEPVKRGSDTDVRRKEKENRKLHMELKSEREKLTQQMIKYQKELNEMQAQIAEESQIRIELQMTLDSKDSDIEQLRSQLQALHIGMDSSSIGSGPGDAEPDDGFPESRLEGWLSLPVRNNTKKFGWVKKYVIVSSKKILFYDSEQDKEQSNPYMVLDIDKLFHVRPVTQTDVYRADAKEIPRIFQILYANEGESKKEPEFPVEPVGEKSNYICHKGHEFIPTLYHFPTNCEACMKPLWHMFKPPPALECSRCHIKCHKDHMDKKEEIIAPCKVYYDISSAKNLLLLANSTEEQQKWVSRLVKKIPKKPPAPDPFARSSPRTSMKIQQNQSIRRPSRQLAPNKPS

In assay [1], `CCCCCCCCCCCCCCCCCCOC[C@H](COP(=O)([O-])OCC[N+](C)(C)C)OC` [CAS_77286-66-9] registered a Ki of 5000 nM.

With `O=S(=O)(NCCNC/C=C/c1ccc(Br)cc1)c1cccc2cnccc12`, the Ki came to 50 nM in assay [2], 270 nM in assay [3] and 500 nM in assay [4].

In the case of `C[C@@H](N)[C@H]1CC[C@H](C(=O)Nc2ccncc2)CC1` [Y-27632], the Ki was 25000 nM in assay [2], 26000 nM in assay [5] and 100 nM in assay [3].

For the compound `NC[C@@H]1O[C@H](O[C@H]2[C@@H](O)[C@H](O[C@@H]3[C@@H](O)[C@H](N)C[C@H](N)[C@H]3O[C@H]3O[C@H](CN)[C@@H](O)[C@H](O)[C@H]3N)O[C@@H]2CO)[C@H](N)[C@@H](O)[C@@H]1O` [KDR Kinase Inhibitor, 3], the Ki in assay [1] and in assay [6] was 5000 nM in each case.

`COc1ccc2c(c[n+](C)c3c4cc5c(cc4ccc23)OCO5)c1OC` showed a Ki in assay [5] of 660 nM.
